Results: patent US8933038B2, “Method of treating cancer with an HLA-A*3303-restricted WT1 peptide and pharmaceutical composition comprising the same” (International Institute of Cancer Immunology, Inc., priority 2006, dated 2015)
Ends that are not written are not given here.

Assays:
[1] = test system: human cells; conditions: in vitro, HLA-A*2402, Non-patent Document 12; cited from earlier work
[2] = test system: TF-1 cells
Procedure: (§1) 3×10^6 of PBMCs (HLA-A*3303/1101) were cultured in a 24-well cell culture plate in complete medium (450 RPMI, 45% AMI-V medium and 10% human AB serum) containing 20 μg/ml of WT1337, WT1364, WT1367 or WT1409 at 37° C. with 5% CO2 for 1 week to obtain responding cells. 2×10^6 of the resulting responding cells were cocultured with 1×10^6 of the B-LCL cells pulsed with the same WT1 peptide in complete medium for 1 week (first stimulation). The PBMCs were cocultured with the B-LCL cells pulsed with the WT1 peptide three more times (second to fourth stimulations) under the conditions under which 20 IU/ml (final concentration) of IL-2 was added as follows: second stimulation: two times every other day from 3 days after the initiation of stimulation; third and fourth stimulations: three times at intervals of one day from the day after the initiation of stimulation. The resulting cells were concentrated using Negative Selection Columns Gravity Feed Kit (StemSp) so that the ratio of CD8-positive T cells became about 800, and cocultured with the B-LCL cells pulsed with the WT1 peptide (fifth stimulation). […]
(§2) The cytotoxic activity of CTLs was measured using ^51Cr release assay. […] The amounts of ^51Cr released into the supernatants were measured using a liquid scintillation counter. The cytotoxic activity (%) was determined using the following formula: (^51Cr release in supernatant of sample−Spontaneous ^51Cr release)/(Maximum ^51Cr release−Spontaneous ^51Cr release)×100 wherein Spontaneous ^51Cr release is ^51Cr release observed when the target cells into which ^51Cr had been incorporated were cultured alone under the same condition, and Maximum ^51Cr release is ^51Cr release observed when the target cells into which ^51Cr had been incorporated were completely lysed using 1% Triton X-100.
The cytotoxic activity of CTLs induced with WT1364, WT1367 or WT1409 against TF-1 cells that are tumor cells expressing a WT1 gene (HLA-A*3303-positive) was determined using the method as described above. […]

[3] = test system: B-LCL cells pulsed with the same WT1 peptide (BLCL-Ps)
Procedure: Peripheral blood mononuclear cells (PBMCs) were separated by Ficoll-Hypaque gradient density centrifugation method from peripheral blood that had been collected from an HLA-A*3303-positive healthy donor (HLA-A*3303/0207). The PBMCs were then seeded to a 24-well cell culture plate at the density of about 1×10^7 in RPMI 1640 medium containing 10% FCS, and a culture supernatant of B95-8 cells (cells producing EB virus) were added. They were cultured at 37° C. with 5% CO2 for about 1 month. B-LCL cells transformed with EB virus, which are B-cell tumor cells, were obtained. […] B-LCL cells were pulsed by incubating them with 20 μg/ml of WT1337, WT1364, WT1367 or WT1409 for 2 hours, and irradiated with 80 Gy of radiation. The resulting B-LCL cells (hereinafter referred to as B-LCL cells pulsed with a WT1 peptide) were used as antigen-presenting cells for the following experiments.
as §1, §2

[4] = test system: B-LCL expressing WT1 (B-LCL-WT1)
Procedure: 3×10^6 of PBMCs (HLA-A*3303/1101) were cultured in a 24-well cell culture plate in complete medium (450 RPMI, 45% AMI-V medium and 10% human AB serum) containing 20 μg/ml of WT1337, WT1364, WT1367 or WT1409 at 37° C. with 5% CO2 for 1 week to obtain responding cells. 2×10^6 of the resulting responding cells were cocultured with 1×10^6 of the B-LCL cells pulsed with the same WT1 peptide in complete medium for 1 week (first stimulation). […]
as §2
The cytotoxic activity of CTLs induced with WT1367 against B-LCL cell expressing WT1 was determined using the method as described above. […]

[5] = test system: human peripheral blood mononuclear cells having HLA-A*0201; conditions: human PBMCs having HLA-A*0201 stimulated with peptide; Non-patent Document 11; cited from earlier work

Sequence | cytotoxic activity (specific lysis) of CTLs induced with the peptide [2] | cytotoxic activity (specific lysis) of CTLs induced with the peptide [3] | also measured
CMTWNQMNL (listed as Homo sapiens) [WT1235] | – | – | induction of WT1-specific CTLs [1]: WT1-specific CTLs (TAK-1) are induced
FSRSDQLKR [WT1364] | have a cytotoxic activity against the cell expressing a WT1 gene exogenously | damage specifically BLCL-Ps | –
LSHLQMHSR [WT1337] | – | damage specifically BLCL-Ps | –
SDQLKRHQR [WT1367] | have a cytotoxic activity against the cell expressing a WT1 gene exogenously | damage specifically BLCL-Ps | cytotoxic activity (specific lysis) of CTLs induced with the peptide [4]: damage only the cell which is HLA-A*3303-positive and expresses WT1
SLGEQQYSV (listed as Homo sapiens) [WH187 peptide] | – | – | induction of WT1-specific CTLs [5]: WT1-specific CTLs are induced
TSEKPFSCR [WT1409] | have a cytotoxic activity against the cell expressing a WT1 gene exogenously | damage specifically BLCL-Ps | –
